Legend:
mice [1] = experiment: Traction test (myorelaxant properties); format: in vivo, mice (OF 1)
Experimental: This test enables sense of balance as well as muscular tonus and strength to be evaulated.
The test is carried out on groups of 10 male mice of the OF 1 strain weighing about 25 g. It consists of suspending the mice by the front paws to a horizontally stretched wire. Note is first taken of the time required by a group of control animals to effect recovery i.e. to place at least one of their back paws on the wire.

[2] = Rota rod test (neurotoxicity); format: in vivo; conditions: mouse, ip, mice, intraperitoneal, 30 min after administration, read-out: NTD50 (neurotoxic dose 50) in the rota rod test
Experimental: The test used was that known as the rota rod test (BOISSIER-Therapie 1958, XIII, pp. 1074-1118). This test aims at enabling the animals' ability to coordinate their movements to be evaluated. It is carried out on batches of 10 mice each weighing about 25 g. The compound to be tested is administered by intraperitoneal route to the animals of each batch so that each batch receives a higher dose than that given to the preceding batch. Thirty minutes after administration, the mice are placed for two minutes on a wooden roller of 4.8 cm diameter which turns at the rate of 4 revolutions per minute. The roller has a rough surface to prevent the animals from slipping.
By this means, the neurotoxic dose 50 (NTD 50) can be determined, i.e. the dose of the compound with which one half of the animals can no longer stay on the roller during the period of time fixed as the reference period.
In order to obtain an activity index figure 30 minutes after administration the rota rod test described above was also performed using for comparison a known myorelaxant, namely mephenesin.

mice [3] = experiment: Maximum electroshock seizure (anticonvulsant action); format: in vivo, mice (OF 1); conditions: for ED50: Mus musculus, ip, 0.25 h, i.p., 15 min after administration, protection of 50% against tonic seizures
Experimental: This seizure is characterized in the mouse by extension of the back paws for 5 to 10 seconds. The extension is similar to that observed during the tonicoclonic seizures provoked by chemical convulsants such as pentylenetetrazol or strychnine.
The test was carried out on batches of 10 mice of the OF 1 strain weighing about 22 g. […] Fifteen minutes later, each animal received an electric shock of twice threshold intensity (about 60 volts).
This latter value is indicated by the symbol HD50 or hypnotic dose 50 and the efficacy index by the fraction: [formula]

mice [4] = experiment: Pentylenetetrazol-induced seizure (anticonvulsant action); format: in vivo, mice (OF 1); conditions: Mus musculus, ip, i.p., 125 mg/kg pentylenetetrazol i.p.
Experimental: The purpose of this test which is carried out on mice is to determine whether the compounds of the invention, when given preventively by intraperitoneal route, are capable at certain doses of protecting some of the animals against the epileptic seizure produced by an adequate and predetermined dose of pentylenetetrazol which would be 100% fatal in the absence of the compound. The test was carried out on batches of 10 male OF 1 mice weighing about 25 g.

rats = experiment: Anoxic seizure induced by gallamine triiodoethylate (antianoxic properties); format: in vivo, rats (OFA); conditions: 2 millimols/kg
From the text: The injection of a sufficient dose of a synthetic curariform substance such as gallamine triiodoethylate provokes in the rat paralysis of the diaphragm. The animal then dies by asphyxia.
Male rats of the OFA strain and weighing about 250 g. were first anesthetized with ether in order to enable tracheotomy to be performed and cortical electrodes to be inserted. Each rat was then maintained under conditions of artificial respiration by means of an appropriate apparatus and a paralysing dose of gallamine triiodoethylate was administered by intraperitoneal route to eliminate spontaneous breathing. The electrocorticogram, the electrocardiogram and the rectal temperature were registered. After a period of 30 minutes during which stabilization of the registrations was obtained the animal was treated with 2 millimols/kg of an oily solution of tri-n-propylacetic acid or an aqueous solution of one of its alkali metal salts. The artificial respiratory apparatus was stopped 5 minutes after treatment and note was taken of the cardiac frequency every 10 seconds as well as of the period of time between the stopping of the apparatus and the appearance of the flat tracing on the electrocorticogram. This period of time represents the period of survival of the animal. The value of the cardiac frequency corresponding to moment of appearance of the flat tracing was calculated by extrapolation.
The same test was performed on control animals but without administration of a compound of the invention.

SMILES	ED50 (mice [1]; Mus musculus, ip, 0.5 h, i.p., 30 min. after administration, read-out: ED50, loss of traction reflex)	Activity index: NTD50/ED50 (mice [1]; rota rod NTD50 / traction ED50, 30 minutes after administration)	TD50 at 0.5 h [2]	ED50 (mice [3])	Efficacy index (HD50 compared with ED50) (mice [3]; electroshock ED50 versus hypnotic dose 50)	ED50 (mice [4]; 0.125 h, 7 min. 30 sec after administration)	ED50 (mice [4]; 0.25 h, 15 min. after administration)	ED50 (mice [4]; 0.5 h, 30 min. after administration)	Increase of period of survival versus controls (rats)	Period of survival (rats; controls 74.3 ± 2.3)	Cardiac frequency when the flat tracing appears (rats; controls 150, calculated by extrapolation)
Cc1ccccc1OCC(O)CO (stereo not drawn) [Mephenesin, reference compound]	250 mg/kg	0.4	100 mg/kg								
CCC1(c2ccccc2)C(=O)NC(=O)NC1=O [Phenobarbital, reference compound]				78 mg/kg	1.3						
CCCC(CCC)(CCC)C(=O)O [Tri-n-propylacetic acid, tri-n-propylacetic acid]				145 mg/kg		87 mg/kg	72 mg/kg	124 mg/kg	19%	87.9 ± 3.7 s	109

Reference: patent US3958011A, “Compositions of tri-n-propylacetic acid and salts thereof and treatment of neurological disorders with such compositions” (priority 1972, dated 1976)
